This note sets out measurements from publication PMC8705818, “Experimental Characterization of the Interaction between the N-Terminal SH3 Domain of Crkl and C3G” (International Journal of Molecular Sciences, 2021).

The assay addresses T1, N-SH3 domain of Crkl (WT) (Homo sapiens, UniProt P46109).
T1 construct: The construct encoding the N-SH3 domain of Crkl was subcloned in a pET28b+ plasmid vector; His-tag; made in house; host or cells: E. coli BL21
As to the kind of experiment: Stopped-flow displacement, N-SH3 WT:dansylated C3G277–296 complex versus nondansylated peptide. The class given is binding. The following applies: 10 °C. As for the experimental part: We rapidly mixed a constant concentration of C3G277–296 peptide (0.5 µM) versus increasing concentrations of N-SH3 (ranging from 0.5 to 5 µM) and the observed rate constants (kobs) obtained at different ionic strength conditions (buffer Hepes 50 mM, pH 7.0, 0.15 M, 0.3 M, 0.5 M and 1 M NaCl) were plotted as function of concentration of N-SH3 and fitted with a linear equation (Figure 1). By following previously derived equations [19, 20], the dependence of kobs as function of [N-SH3] was fitted with Equation (1), taking into account the non-pseudo-first order conditions, allowing us to calculate the microscopic association rate constant (kon), the microscopic dissociation rate constant (koff) of the binding reaction and the equilibrium dissociation rate constant KD, such as koff/kon. To increase the reliability of the calculated KD, we resorted to directly obtaining a koff value through displacement experiments (Table 1), in which a preincubated complex of N-SH3 domain and dansylated C3G277–296 peptide (at the concentration of 0.5 and 2 µM, respectively) were rapidly mixed versus a high excess of nondansylated peptide (ranging from 20 to 40 µM). In agreement with the theory in [21], the observed rate constants were insensitive to displacer concentration. In all binding and displacement experiments conducted, traces were satisfactorily fitted with a single-exponential equation. (1) kobs=(kon^2∗(2−[NSH3])^2+koff^2+2konkoff(2+[NSH3]))^1/2
Kinetic binding experiments were performed on a single-mixing SX-18 stopped-flow instrument (Applied Photophysics), by mixing a constant concentration (0.5 μM) of C3G dansylated versus increasing concentrations of N-SH3 at 10 °C. Ionic strength dependence of wt N-SH3 was performed with concentrations ranging from 1 to 5 µM for 0 M NaCl condition and from 0.5 to 5 µM for 0.15 M, 0.3 M, 0.5 M and 1 M NaCl, buffer Hepes 50 mM pH 7.0. The excitation wavelength was 280 nm, and fluorescence was collected using a 455 nm cut-off filter. At least, five independent acquisitions were collected and averaged for each experiment. The resulting averages were all satisfactorily fitted with a single-exponential equation. Buffers used for pH dependence were: 50 mM Sodium Acetate pH 5.0, 50 mM Sodium Acetate, pH 5.5, Bis–Tris 50 mM pH 6.0, Bis–Tris 50 mM pH 6.5, Hepes 50 mM pH 7.0, Hepes 50 mM pH 7.5, Tris–HCl 50 mM pH 8.0, Tris–HCl 50 mM pH 8.5, Tris–HCl 50 mM pH 9.0, all with added 0.5 M NaCl. Concentrations of N-SH3 used for each experiment were: 4.0–8.0 µM at pH 5.0, 2.0–7.0 µM at pH 5.5, 1.0–5.0 µM at pH 6.0, 0.5–5.0 µM at pH 6.5, 1.5–6.0 µM at pH 7.0, 0.5–5.0 µM at pH 7.5, 1.5–6.0 µM at pH 8.0, 1.5–6.0 µM pH 8.5, 1.5–6.0 µM at pH 9.0. For the ionic strength dependence of D138A and E140A variants buffer used were 0.05 M NaCl, 0.1 M NaCl, 0.15 M NaCl, in 50 mM Hepes pH 7.5. Concentrations of N-SH3 D138A used for each experiment were: 2.0–4.5 µM at 0 M NaCl, 2.5–6.0 µM at 0.05 M, 0.1 M, 0.15 M NaCl. Concentrations of N-SH3 E140A used for each experiment were: 2.0–4.5 µM at 0 M NaCl, 3.0–5.5 µM at 0.05 M NaCl, 3.0–5.0 µM at 0.1 M NaCl, 3.0–5.5 µM at 0.15 M NaCl. Displacement kinetic experiments were performed by mixing a preincubated complex of N-SH3 (in all its variants) and dansylated C3G versus a high excess of nondansylated C3G (see text for details). Experiments were performed in the same buffer conditions as the binding experiments, except for D141A variant, for which 20% w/v sucrose was added to the buffer Hepes 50 mM pH 7.0. Displacement traces were fitted with a single-exponential equation.

Each structure is given as a SMILES string. Peptide text beside a SMILES is read from it. * marks the point of attachment. Dansyl = CN(C)c1cccc2c(S(=O)(=O)*)cccc12

T1 sequence (P46109 123-183 limits assumed): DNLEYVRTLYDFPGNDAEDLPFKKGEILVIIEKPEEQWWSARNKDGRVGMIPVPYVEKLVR

In general, koff refers to the rate constant with which the complex falls apart. Read a high koff as a short-lived complex. On to `CC(C)C[C@H](NC(=O)[C@H](C)NC(=O)[C@@H]1CCCN1C(=O)[C@@H]1CCCN1C(=O)[C@@H]1CCCN1C(=O)[C@H](CO)NC(=O)[C@H](CC(N)=O)NC(=O)[C@H](CC(=O)O)NC(=O)[C@@H](NC(=O)[C@@H](NS(=O)(=O)c1cccc2c(N(C)C)cccc12)C(C)C)C(C)C)C(=O)N1CCC[C@H]1C(=O)N1CCC[C@H]1C(=O)N[C@@H](CCCCN)C(=O)N[C@@H](CCCCN)C(=O)N[C@@H](CCCNC(=N)N)C(=O)N[C@@H](CCC(N)=O)C(=O)N[C@@H](CO)C(=O)N[C@@H](C)C(=O)N1CCC[C@H]1C(=O)N[C@@H](CO)C(=O)O` [C3G277–296] (Dansyl-VVDNSPPPALPPKKRQSAPS-OH), for which the koff stood at 257 ± 10 s⁻¹ (pH 5, pH 5.0 (50 mM Sodium Acetate), 0.5 M NaCl, displacement); 81 ± 3 s⁻¹ (pH 5.5, pH 5.5 (50 mM Sodium Acetate), 0.5 M NaCl, displacement); 78 ± 3 s⁻¹ (pH 6, pH 6.0 (Bis–Tris 50 mM), 0.5 M NaCl, displacement); 65 ± 2 s⁻¹ (pH 6.5, pH 6.5 (Bis–Tris 50 mM), 0.5 M NaCl, displacement); 12 ± 1 s⁻¹ (pH 7, 0 M NaCl, Hepes 50 mM pH 7.0, displacement by 20–40 µM nondansylated peptide); 23 ± 1 s⁻¹ (pH 7, 0.15 M NaCl, Hepes 50 mM pH 7.0, displacement). For the same molecule, the koff (pH 7, 0.3 M NaCl, Hepes 50 mM pH 7.0, displacement) amounted to 32 ± 2 s⁻¹; the koff (pH 7, 0.5 M NaCl (ionic strength series), Hepes 50 mM pH 7.0, displacement) turned out to be 34 ± 1 s⁻¹; the koff (pH 7, 1.0 M NaCl, Hepes 50 mM pH 7.0, displacement) amounted to 51 ± 2 s⁻¹; the koff (pH 7, pH 7.0 (Hepes 50 mM), 0.5 M NaCl (pH series), displacement) was 42 ± 2 s⁻¹; the koff (pH 7.5, pH 7.5 (Hepes 50 mM), 0.5 M NaCl, displacement) is 34 ± 2 s⁻¹; the koff (pH 8, pH 8.0 (Tris–HCl 50 mM), 0.5 M NaCl, displacement) was determined as 46 ± 3 s⁻¹. Also, the koff by setting is: (pH 8.5, pH 8.5 (Tris–HCl 50 mM), 0.5 M NaCl, displacement) 40 ± 3 s⁻¹; (pH 9, pH 9.0 (Tris–HCl 50 mM), 0.5 M NaCl, displacement) 39 ± 2 s⁻¹.
